Measurements taken from patent US20250101023A1, “HETEROARYL DERIVATIVE AND USES THEREOF” (IUCF-HYU (INDUSTRY-UNIVERSITY COOPERATION FOUNDATION …, priority 2022, published 2025).

Target: ZIPK/DAPK3 (Homo sapiens (Human), UniProt O43293)
Assay: Kinome-wide profiling
Type: biochemical
Settings: read-out: % Residual Activity (mean)

ZIPK/DAPK3, sequence (O43293 whole entry): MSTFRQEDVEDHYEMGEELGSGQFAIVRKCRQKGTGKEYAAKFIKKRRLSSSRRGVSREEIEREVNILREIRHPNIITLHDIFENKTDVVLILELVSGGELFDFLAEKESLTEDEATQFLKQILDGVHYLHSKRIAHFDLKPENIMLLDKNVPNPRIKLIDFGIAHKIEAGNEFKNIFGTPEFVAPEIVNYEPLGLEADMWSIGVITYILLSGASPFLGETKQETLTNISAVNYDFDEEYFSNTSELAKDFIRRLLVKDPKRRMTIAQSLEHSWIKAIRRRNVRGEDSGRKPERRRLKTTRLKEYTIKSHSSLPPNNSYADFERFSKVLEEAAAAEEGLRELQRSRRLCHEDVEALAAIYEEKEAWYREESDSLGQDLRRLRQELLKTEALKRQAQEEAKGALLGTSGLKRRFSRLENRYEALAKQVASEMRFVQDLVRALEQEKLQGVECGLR

## CCn1cnc2c(NCc3ccc(-c4ccccn4)nc3)nc(-c3ccc(N)nc3)nc21 [Example 53, N-([2,2′-bipyridin]-5-ylmethyl)-2-(6-aminopyridin-3-yl)-9-ethyl-9H-purin-6-amine]
  remaining activity at 10 µM: 80.8%
